Test results reported in patent US10987354B2, “Inhibitors of influenza virus replication and uses thereof” (SUNSHINE LAKE PHARMA CO., LTD., priority 2016, dated 2021).

Tests used:
virus H1N1 A/Weiss/43 = assay: microbe, parasite or virus in culture; type: cell-based; settings: Influenza A virus, H1N1, 120 h; MDCK cells, CPE, 5 days, CCK-8; read-out: EC50, inhibitory activity against influenza virus (A/Weiss/43(H1N1))
in vivo = settings: SD, rat
Description: The compounds disclosed herein were administered in form of a saline solution containing 5% DMSO, 5% Kolliphor HS 15 and 90% Saline. For intravenous administration (iv), the animals were administered with a dose of 1 mg/kg, and blood samples (0.3 mL) were collected at the time points of 0.083, 0.25, 0.5, 1.0, 2.0, 5.0, 7.0 and 24 h after drug administration, then each blood sample was processed to separate plasma by centrifugation at 3000 rpm or 4000 rpm for 10 minutes. For oral administration (po), the animals were administered with a dose of 5 mg/kg, and blood samples (0.3 mL) were collected at the time points of 0.25, 0.5, 1.0, 2.0, 5.0, 7.0 and 24 h after drug administration, then each blood sample was processed to separate plasma by centrifugation at 3000 rpm or 4000 rpm for 10 minutes. Plasma samples were collected and stored at −20° C. or −70° C. until LC/MS/MS analysis.

| SMILES | EC50 (virus H1N1 A/Weiss/43) | AUC(0-inf) (in vivo; iv, 1 mg/kg) | AUC(0-t) (in vivo; iv, 1 mg/kg) | clearance (in vivo; iv, 1 mg/kg) | AUC(0-inf) (in vivo; po, 5 mg/kg) | AUC(0-t) (in vivo; po, 5 mg/kg) |
| --- | --- | --- | --- | --- | --- | --- |
| O=C(O)C1C2CCC(CC2)C1Nc1cc(-c2ccco2)nc(-c2c[nH]c3ncc(Cl)nc23)n1 (racemic) [Example 1, (+/−)-trans-3-((2-(2-chloro-5H-pyrrolo[2,3-b]pyrazin-7-yl)-6-(furan-2-yl)pyrimidin-4-yl)amino)bicyclo[2.2.2]octane-2-carboxylic Acid] | 3890 pM | – | – | – | – | – |
| O=C(O)C1C2CCC(CC2)C1Nc1nc(-c2c[nH]c3ncc(Cl)nc23)nc(-c2ccco2)c1F (racemic) [Example 3, (+/−)-trans-3-((2-(2-chloro-5H-pyrrolo[2,3-b]pyrazin-7-yl)-5-fluoro-6-(furan-2-yl)pyrimidin-4-yl)amino)bicyclo[2.2.2]octane-2-carboxylic Acid] | 672 pM | – | – | – | – | – |
| O=C(O)C1C2CCC(CC2)C1Nc1nc(-c2c[nH]c3ncc(Cl)nc23)nc(-c2ccccc2)c1F (racemic) [Example 4, (+/−)-trans-3-((2-(2-chloro-5H-pyrrolo[2,3-b]pyrazin-7-yl)-5-fluoro-6-phenylpyrimidin-4-yl)amino)bicyclo[2.2.2]octane-2-carboxylic Acid] | 116 pM | – | – | – | – | – |
| Cn1cc(-c2nc(-c3c[nH]c4ncc(Cl)nc34)nc(NC3C4CCC(CC4)C3C(=O)O)c2F)cn1 (racemic) [Example 5, (+/−)-trans-3-((2-(2-chloro-5H-pyrrolo[2,3-b]pyrazin-7-yl)-5-fluoro-6-(1-methyl-1H-pyrazol-4-yl)pyrimidin-4-yl)amino)bicyclo[2.2.2]octane-2-carboxylic Acid] | 3520 pM | – | – | – | – | – |
| O=C(O)C1C2CCC(CC2)C1Nc1nc(-c2c[nH]c3ncc(Cl)nc23)nc(-c2cc3ccccc3o2)c1F (racemic) [Example 6, (+/−)-trans-3-((6-(benzofuran-2-yl)-2-(2-chloro-5H-pyrrolo[2,3-b]pyrazin-7-yl)-5-fluoropyrimidin-4-yl)amino)bicyclo[2.2.2]octane-2-carboxylic Acid] | 398 pM | – | – | – | – | – |
| O=C(O)C1C2CCC(CC2)C1Nc1cc(-c2ccccc2)nc(-c2c[nH]c3ncc(Cl)nc23)n1 (racemic) [Example 12, (+/−)-trans-3-((2-(2-chloro-5H-pyrrolo[2,3-b]pyrazin-7-yl)-6-phenylpyrimidin-4-yl)amino)bicyclo[2.2.2]octane-2-carboxylic Acid] | 2540 pM | – | – | – | – | – |
| O=C(O)[C@H]1C2CCC(CC2)[C@@H]1Nc1nc(-c2c[nH]c3ncc(Cl)nc23)ncc1F [Compound A, reference compound] | 33200 pM | 894 ng·h/mL | 894 ng·h/mL | 312 mL/min/kg | 2910 ng·h/mL | 2880 ng·h/mL |
| O=C(O)[C@H]1C2CCC(CC2)[C@@H]1Nc1nc(-c2c[nH]c3ncc(Cl)nc23)nc(-c2cc3ccccc3s2)c1F [Example 7a, (2S,3S)-3-((6-(benzo[b]thiophen-2-yl)-2-(2-chloro-5H-pyrrolo[2,3-b]pyrazin-7-yl)-5-fluoropyrimidin-4-yl)amino)bicyclo[2.2.2]octane-2-carboxylic Acid] | – | 3260 ng·h/mL | 3220 ng·h/mL | 85.2 mL/min/kg | 9950 ng·h/mL | 9840 ng·h/mL |
| CC(C)(C)[C@@H](CC(=O)O)Nc1nc(-c2c[nH]c3ncc(Cl)nc23)nc(-c2ccco2)c1F [Example 8, (R)-3-((2-(2-chloro-5H-pyrrolo[2,3-b]pyrazin-7-yl)-5-fluoro-6-(furan-2-yl)pyrimidin-4-yl)amino)-4,4-dimethylpentanoic Acid] | 394 pM | 1550 ng·h/mL | 1540 ng·h/mL | 187 mL/min/kg | 5440 ng·h/mL | 5420 ng·h/mL |
| O=C(O)[C@H]1C2CCC(CC2)[C@@H]1Nc1nc(-c2c[nH]c3ncc(Cl)nc23)nc(-c2cccs2)c1F [Example 13, (2S,3S)-3-((2-(2-chloro-5H-pyrrolo[2,3-b]pyrazin-7-yl)-5-fluoro-6-(thiophen-2-yl)pyrimidin-4-yl)amino)bicyclo[2.2.2]octane-2-carboxylic Acid] | 17 pM | 10100 ng·h/mL | 9900 ng·h/mL | 27.8 mL/min/kg | 29000 ng·h/mL | 27400 ng·h/mL |
| O=C(O)[C@H]1C2CCC(CC2)[C@@H]1Nc1cc(-c2cc3ccccc3s2)nc(-c2c[nH]c3ncc(Cl)nc23)n1 [Example 15, (2S,3S)-3-((6-(benzo[b]thiophen-2-yl)-2-(2-chloro-5H-pyrrolo[2,3-b]pyrazin-7-yl)pyrimidin-4-yl)amino)bicyclo[2.2.2]octane-2-carboxylic Acid] | 760 pM | – | – | – | – | – |
| O=C(O)[C@H]1C2CCC(CC2)[C@@H]1Nc1nc(-c2c[nH]c3ncc(Cl)nc23)nc(-c2ccc(C3CC3)s2)c1F [Example 27, (2S,3S)-3-((2-(2-chloro-5H-pyrrolo[2,3-b]pyrazin-7-yl)-6-(5-cyclopropylthiophen-2-yl)-5-fluoropyrimidin-4-yl)amino)bicyclo[2.2.2]octane-2-carboxylic Acid] | 24 pM | 1960 ng·h/mL | 1960 ng·h/mL | 144 mL/min/kg | 7250 ng·h/mL | 7170 ng·h/mL |
| O=C(O)[C@H]1C2CCC(CC2)[C@@H]1Nc1nc(-c2c[nH]c3ncc(Cl)nc23)nc(-c2ccc(Cl)s2)c1F [Example 29, (2S,3S)-3-((2-(2-chloro-5H-pyrrolo[2,3-b]pyrazin-7-yl)-6-(5-chlorothiophen-2-yl)-5-fluoropyrimidin-4-yl)amino)bicyclo[2.2.2]octane-2-carboxylic Acid] | 13 pM | 4980 ng·h/mL | 4830 ng·h/mL | 56.3 mL/min/kg | 23800 ng·h/mL | 23700 ng·h/mL |
| Cc1ccc(-c2nc(-c3c[nH]c4ncc(Cl)nc34)nc(N[C@H]3C4CCC(CC4)[C@@H]3C(=O)O)c2F)s1 [Example 33, (2S,3S)-3-((2-(2-chloro-5H-pyrrolo[2,3-b]pyrazin-7-yl)-5-fluoro-6-(5-methylthiophen-2-yl)pyrimidin-4-yl)amino)bicyclo[2.2.2]octane-2-carboxylic Acid] | 10 pM | – | – | – | – | – |
| O=C(O)[C@H]1C2CCC(CC2)[C@@H]1Nc1cc(N2CCN(c3ccccc3)CC2)nc(-c2c[nH]c3ncc(Cl)nc23)n1 [Example 39, (2S,3S)-3-((2-(2-chloro-5H-pyrrolo[2,3-b]pyrazin-7-yl)-6-(4-phenylpiperazin-1-yl)pyrimidin-4-yl)amino)bicyclo[2.2.2]octane-2-carboxylic Acid] | 1220 pM | – | – | – | – | – |
| O=C(O)[C@H]1C2CCC(CC2)[C@@H]1Nc1nc(-c2c[nH]c3ncc(Cl)nc23)nc(-c2nccs2)c1F [Example 49, (2S,3S)-3-((2-(2-chloro-5H-pyrrolo[2,3-b]pyrazin-7-yl)-5-fluoro-6-(thiazol-2-yl)pyrimidin-4-yl)amino)bicyclo[2.2.2]octane-2-carboxylic Acid] | 521 pM | 3950 ng·h/mL | 3940 ng·h/mL | 71.5 mL/min/kg | 3550 ng·h/mL | 3500 ng·h/mL |
| O=C(O)[C@H]1C2CCC(CC2)[C@@H]1Nc1nc(-c2c[nH]c3nc(Cl)cnc23)nc(-c2cccs2)c1F [Example 53, (2S,3S)-3-((2-(3-chloro-5H-pyrrolo[2,3-b]pyrazin-7-yl)-5-fluoro-6-(thiophen-2-yl)pyrimidin-4-yl)amino)bicyclo[2.2.2]octane-2-carboxylic Acid] | – | 3740 ng·h/mL | 3670 ng·h/mL | 74.2 mL/min/kg | 18000 ng·h/mL | 17700 ng·h/mL |
| O=C(O)[C@H]1C2CCC(CC2)[C@@H]1Nc1cc(-n2cccc2)nc(-c2c[nH]c3ncc(Cl)nc23)n1 [Example 55, (2S,3S)-3-((2-(2-chloro-5H-pyrrolo[2,3-b]pyrazin-7-yl)-6-(1H-pyrrol-1-yl)pyrimidin-4-yl)amino)bicyclo[2.2.2]octane-2-carboxylic Acid] | 680 pM | – | – | – | – | – |
| O=C(O)[C@H]1C2CCC(CC2)[C@@H]1Nc1nc(-c2c[nH]c3ncc(Cl)nc23)nc(-c2ccc(F)s2)c1F [Example 62, (2S,3S)-3-((2-(2-chloro-5H-pyrrolo[2,3-b]pyrazin-7-yl)-5-fluoro-6-(5-fluorothiophen-2-yl)pyrimidin-4-yl)amino)bicyclo[2.2.2]octane-2-carboxylic Acid] | 11 pM | 5510 ng·h/mL | 5390 ng·h/mL | 50.7 mL/min/kg | 25000 ng·h/mL | 24400 ng·h/mL |
| N#Cc1ccc(-c2nc(-c3c[nH]c4ncc(Cl)nc34)nc(N[C@H]3C4CCC(CC4)[C@@H]3C(=O)O)c2F)s1 [Example 63, (2S,3S)-3-((2-(2-chloro-5H-pyrrolo[2,3-b]pyrazin-7-yl)-6-(5-cyanothiophen-2-yl)-5-fluoropyrimidin-4-yl)amino)bicyclo[2.2.2]octane-2-carboxylic acid] | 79 pM | – | – | – | – | – |
| O=C(O)[C@H]1C2CCC(CC2)[C@@H]1Nc1nc(-c2c[nH]c3nccnc23)nc(-c2cccs2)c1F [Example 64, (2S,3S)-3-((5-fluoro-2-(5H-pyrrolo[2,3-b]pyrazin-7-yl)-6-(thiophen-2-yl)pyrimidin-4-yl)amino)bicyclo[2.2.2]octane-2-carboxylic Acid] | 887 pM | – | – | – | – | – |
| O=C(O)[C@H]1C2CCC(CC2)[C@@H]1Nc1nc(-c2c[nH]c3ncc(Cl)nc23)nc2c1ccn2C(CF)CF [Example 65, (2S,3S)-3-((2-(2-chloro-5H-pyrrolo[2,3-b]pyrazin-7-yl)-7-(1,3-difluoropropan-2-yl)-7H-pyrrolo[2,3-d]pyrimidin-4-yl)amino)bicyclo[2.2.2]octane-2-carboxylic Acid] | – | 2390 ng·h/mL | 2370 ng·h/mL | 121 mL/min/kg | 6170 ng·h/mL | 6150 ng·h/mL |
| CC(C)Cn1ccc2c(N[C@H]3C4CCC(CC4)[C@@H]3C(=O)O)nc(-c3c[nH]c4ncc(Cl)nc34)nc21 [Example 66, (2S,3S)-3-((2-(2-chloro-5H-pyrrolo[2,3-b]pyrazin-7-yl)-7-isobutyl-7H-pyrrolo[2,3-d]pyrimidin-4-yl)amino)bicyclo[2.2.2]octane-2-carboxylic Acid] | 274 pM | 3480 ng·h/mL | 3470 ng·h/mL | 82.5 mL/min/kg | 12600 ng·h/mL | 12500 ng·h/mL |
